Reference: patent US20210361768A1, “METHODS AND MATERIALS FOR ASSESSING AND TREATING CANCERS” (Mayo Foundation for Medical Education and Research, priority 2018, published 2021)

Tested on: HER2-positive breast cancer
Assay: NeoALTTO trial: pathologic complete response and event-free survival by treatment arm and adaptive immune signature (AIS) status
Type: in vivo, human
Settings: NeoALTTO patients
[1] = AIS deficient, listed as lapatinib

## CS(=O)(=O)CCNCc1ccc(-c2ccc3ncnc(Nc4ccc(OCc5cccc(F)c5)c(Cl)c4)c3c2)o1 [Lapatinib, lapatinib]
AIS deficient
  %6-yr EFS (6-year Event Free Survival rate): 68%
  % pCR (complete pathological response rate): 17%
[1]
  %6-yr EFS (6-year Event Free Survival rate): 68%
  % pCR (complete pathological response rate): 17%
AIS enrich
  %6-yr EFS (6-year Event Free Survival rate): 65%
  % pCR (complete pathological response rate): 21%
